Measured values as given in patent publication US6994981B2, “Modulators of paraptosis and related methods” (The Buck Institute, priority 2002, dated 2006).
Residues, ends and D or L forms follow the SMILES beside them. *: point of attachment. Cbz = O=C(OCc1ccccc1)*; CH2F = FC*

Key:
[1] = system: paraptosis induced by caspase 7, caspase 8 or caspase 9; assay: Inhibition of paraptosis induced by caspases; type: cell-based
Experimental: (§1) Test compounds were added to IGFIR-IC transfected 293T cells at the time of transfection.

[2] = system: striatal, cortical, and hippocampal neurons; assay: SP-induced cell death in primary striatal, cortical and hippocampal neurons, trypan blue viability and staining; type: cell-based, rat; conditions: for effect on SP-induced cell death in neurons: caspase inhibitors at 50 μM
Experimental: Rat neuronal primary cell cultures were also used to assay for inducers and inhibitors of paraptosis. Briefly, primary striatal, cortical and hippocampal cultures were prepared from 17-day-old Sprague-Dawley rat embryos (B&K). The tissue was dissected, minced and trypsinized for five minutes using 0.25% trypsin (Cell Grow). After the addition of 10% horse serum (Life Technologies) to inhibit the trypsin, the cell suspension was triturated 15–20 times with a 10 ml syringe and centrifuged for five minutes at 800×g. The pellet was resuspended in MEM-PAK (UCSF Cell Culture facility), supplemented with 2.02 gm glucose, 2 mM GLUTAMAX™ (Life Technologies) and penicillin/streptomycin (100 U/ml). The suspension was filtered through a […] cell strainer and the final culture medium contained 5% horse serum. Subsequently, 3-4×10^5 cells per Cm^2 were seeded onto either poly-D-lysine precoated 8-well chamber slides (Becton-Dickson Labware) or 96 well plates precoated with […] of poly-D-lysine (Sigma) in water. After 30 minutes of incubation time, unattached cells were removed together with the medium and replaced with glucose enriched MEM-PAK plus 5% horse serum. The cultures were then incubated at 37° C. in 95% air 5% carbon dioxide with 95% humidity. Cultures were used for experiments between day 1 and day 7 when glial contamination was at a minimum.
Primary neuronal cells were prepared as described in Example I. SP (SIGMA) at a concentration of 0.1 nM–100 μM was added 24–48 hrs after seeding, in the presence of 2.5% horse serum. When the cultures were maintained for more than 5 days, 10 μM cytosine arabinoside was added for 24 hours, beginning 3 days after plating the cells. Viability was quantified by trypan blue staining of the total cell population.
The following compounds were added at the same time as SP in the indicated experiments: 5 nM L-732, 138; 1 nM L-733,060; 1 μg/ml Actinomycin D or 1 μg/ml Cycloheximide. All of these compounds were obtained from SIGMA. The caspase inhibitors zVAD.fmk and BAF were added at 50 μM and obtained from Enzyme System Products, Livermore, Calif.
Either neuronal primary cultures or human embryonic kidney 293T cells were fixed with 4% paraformaldehyde and stained with 0.5 μg/ml DAPI (Molecular Probes) or Hoechst(SIGMA). […]
(§2) The protein kinase inhibitors were added 30 min before SP exposure at the following concentrations: 10 μM Rp-8-Br-cAMPS (adenosin 3′,5′-cyclic monophosphorothioate, 8-bromo-, Rp-isomer, sodium salt) which is a PKA inhibitor; 50 nM Calphostin C, which is a PKC inhibitor; 10 μM PD 98059 which is a MAPKK (MEK) inhibitor. These compounds were obtained from Calbiochem. Viability was quantified by trypan blue staining of the total cell population.

[3] = system: 293T cells transfected with NK1R; assay: SP-induced, NK1R-mediated cell death in 293T cells transfected with NK1R, trypan blue and staining; type: cell-based, human; conditions: for effect on NK1R-mediated cell death in 293T cells: caspase inhibitors at 50 μM
Experimental: (§3) Human embryonic kidney 293T cells were grown as described in Example I. Transient transfection was performed using Superfect (Qiagen) as described by the manufacturer. Briefly, 2×10^5 cells/well were seeded into 35 mm wells 16 hr prior to transfection. Superfect:DNA complexes were added at a 5 μl:2 μg ratio for 3 hr; then the medium was replaced and after 24 hr SP was added. At 24–48 hr after addition of SP cell death was quantified as follows: the media containing floating cells were collected and centrifuged 10 min at 2000×g, the pellet was resuspended in PBS/trypan blue and the cells were counted using a hematocytometer. When other compounds were used, they were added at the same time as SP: zVAD.fmk or BAF was added at 50 μM and obtained from Enzyme System Products, Livermore, Calif.
Briefly, the method entailed cloning the full-length (1.2 kb) NK1R cDNA (Genbank Accession No. M31477) by RT-PCR from adult rat hippocampal RNA into the XbaI/EcoRI sites of the vector pcDNA3.1 (Invitrogen), using the following oligonucleotides: forward 5′[…] 3′ (SEQ ID NO:2); reverse 5′[…] 3′ (SEQ ID NO:3).
Cells were stained according to the manufacturer's instructions (Clontech). Briefly, cellswere washed with binding buffer and incubated with FITC-Annexin-V or EGFPAnnexin-V for 5–10 min and fixed with 4% paraformaldehyde.
Cells were fixed 10 min with 4% paraformaldehyde and stained according to the manufacturer's instructions (Promega).
as §2

[4] = system: caspase-8 transfected cells; assay: Apoptosis induced by over-expression of caspase-8 in 293T cells; type: cell-based, human; conditions: caspase inhibitors at 50 μM
Experimental: as §3

paraptosis = conditions: cited from earlier work
293T cells = assay: Induction of paraptosis in 293T cells, LDH cell death assay; type: cell-based, human; conditions: 293T cells
Experimental: Human embryonic kidney 293T cell line cells were used to assay for inducers and inhibitors of paraptosis. These cells were cultured in high glucose DMEM (Life Technologies) supplemented with 10% FBS (Sigma) and 1% penicillin/streptomycin (Life Technologies). The cultures were incubated at 37° C. in 95% air 5% carbon dioxide with 95% humidity.
(§4) Subsequently, compounds were added to 293T cells and/or rat neuronal primary cell culture cells in order to determine if the compounds could induce paraptosis. Cell death was assayed using the lactate dehydrogenase (LDH) assay, in which the relative amount of enzyme released from dying cells in the medium is measured by following the disappearance of nicotinamide adenine dinucleotide, reduced form (NADH) in the following reaction: pyruvate+NADH <−>NAD^++ lactate. Briefly, 50 μl of culture medium for either 293T cells or 100 μl of culture medium for neuronal primary culture were dispensed in a 96 well plate to which 100 μl of a solution consisting of 5 mg of NADH dissolved in 20 ml of PBS and 0.5 ml of 100 mM NaPyruvate. NADH disappearance was assessed by kinetic photmetric readings at a 340 nm wavelength at 19 minute intervals over a period of 2 hours and 30 minutes.
Constructs of pcDNA3 containing procaspase-7 or procaspase-8 were transiently transfected into 293T cells using Lipofect-Amine (GIBCO-BRL) according to the manufacturer's instructions. Briefly, 1×10^6 293T cells were seeded in 6 cm dishes, and transfected the next day using a ratio of DNA:Lipofect-Amine of 1 μg:5 μl. Transfection efficiency was 60–80% for 293T cells, as determined by X-gal staining after transfection of a β-galactosidase construct.

[5] = system: rat neuronal primary cell cultures; assay: Induction of paraptosis in rat neuronal primary cell cultures, LDH cell death assay; type: cell-based
Experimental: Rat neuronal primary cell cultures were also used to assay for inducers and inhibitors of paraptosis. Briefly, primary striatal, cortical and hippocampal cultures were prepared from 17-day-old Sprague-Dawley rat embryos (B&K). The tissue was dissected, minced and trypsinized for five minutes using 0.25% trypsin (Cell Grow). After the addition of 10% horse serum (Life Technologies) to inhibit the trypsin, the cell suspension was triturated 15–20 times with a 10 ml syringe and centrifuged for five minutes at 800×g. The pellet was resuspended in MEM-PAK (UCSF Cell Culture facility), supplemented with 2.02 gm glucose, 2 mM GLUTAMAX™ (Life Technologies) and penicillin/streptomycin (100 U/ml). […]
as §4, with “Briefly, 50 μl of culture medium for either 293T cells or 100 μl of culture medium for neuronal primary culture were dispensed in a 96 well plate to which 100 μl of a solution consisting of 5 mg of NADH dissolved in 20 ml of PBS and 0.5 ml of 100 mM NaPyruvate.” left out

[6] = system: IGFIR-IC transfected 293T cells; assay: Inhibition of IGFIR-IC induced paraptosis in transfected 293T cells, LDH assay; type: cell-based, human; conditions: for effect on IGFIR-induced paraptosis: concentration not given
Experimental: Paraptosis was induced in 293T cells by expressing the intracellular domain of the insulin-like growth factor I receptor (IGFIR-IC) in these cells using transient transfection as described above.
as §1
The TRAF2 dominant negative mutant contains a deletion of the amino terminal 271 amino acids of the protein. The ratio of IGFIR-IC:AIP1 and IGFIR-IC:TRAF2DN was 1:3. […] Antisense oligonucleotide constructs for JNK1 or JNK2 (50–100 nM) were transfected into 293T cells one day before transfection with the IGFIR-IC construct. For all inhibition assays, cell viability was measured using the LDH assay.

ERK-1/2 = assay: Western blot of ERK-1/2 phosphorylation in 293T cells expressing NK1R; type: cell-based, human; conditions: 10 μM
Experimental: For the transfected 293T cells, cells were washed with cold PBS after incubation with SP the time indicate and homogenized on lysis buffer (150 mM NaCl, 1% Triton X-100, 50 mM Tris HCL pH8.0). Cytoplasmic extracts were collected after 10 min centrifugation at 14,000 rcf. Total amount of protein was quantified by Bradford assay and electrophoresis of equal amounts of total protein was performed on SDS-polyacrylamide gels. Separated proteins were transferred to polyvinylidene fluoride membranes at 4° C. for Western blot analysis. Membranes were probed with a 1:1000 dilution of anti-ERK-1/2 or anti phospho-ERK-1/2 (BioSource). The blots were incubated in a horseradish peroxidase coupled secondary antibody for 1 h followed by enhanced chemiluminescence detection of the proteins with […]™ ECL detection (Amersham, Arlington Heights, Ill.). For striatal neurons, total ERK-1/2 was immunoprecipitated using superparamagnetic Microbeads conjugated to protein A, following manufacture's instructions (MACS, Miltenyi Biotec), and then developed by Western blot against either anti-ERK-1/2 or anti phospho-ERK-1/2.

SP-induced paraptosis = assay: Inhibition of SP-induced paraptosis, cells not specified; type: cell-based; conditions: concentration not given

Molecule: COC(=O)CC(NC(=O)OC(C)(C)C)C(=O)CF (centres unmarked) [BAF, Box-aspartyl.fmk]
- inhibition of paraptosis induction by caspase-7 and caspase-8 [1]: subject to inhibition
- effect on SP-induced cell death in neurons [2]: not inhibited
- effect on NK1R-mediated cell death in 293T cells [3]: lack of effect
- effect on apoptosis induced by over-expression of caspase-8 [4]: completely abolished
- effect of caspase inhibitors on paraptosis (paraptosis): lack of effect

Molecule: CCCCCCCCCCCCC/C=C/[C@@H](O)[C@H](CO)NC(C)=O [C2 ceramide, N-Acetyl-D-sphingosine]
- concentration at which found to induce paraptosis (293T cells): 15 to 100 µM
- concentration at which found to induce paraptosis [5]: 15 to 100 µM

Molecule: N[C@@H](CCC(=O)O)C(=O)O [Glutamic Acid, (S)-2-aminopentanedioic acid]
- concentration at which found to induce paraptosis [5]: 50 to 500 µM

Molecule: COc1cccc(-c2cc(=O)c3ccccc3o2)c1N [PD 98059]
- effect on IGFIR-induced paraptosis [6]: not blocked
- effect on neuronal cell death in response to SP ([2]; added 30 min before SP: 10 μM PD 98059, 50 nM Calphostin C, 10 μM Rp-8-Br-cAMPS): completely blocked
- effect on non-neuronal NK1R-mediated pcd ([3]; 10 μM): inhibited
- effect on phosphorylation of ERK-1/2 (ERK-1/2): effectively reduced

Molecule: N#CC(=C(/N)Sc1ccccc1N)/C(C#N)=C(/N)Sc1ccccc1N [UO126]
- effect on IGFIR-induced paraptosis [6]: can be inhibited
- effect on SP-induced paraptosis (SP-induced paraptosis): can be inhibited

Molecule: COC(=O)C[C@H](NC(=O)[C@H](C)NC(=O)[C@@H](NC(=O)OCc1ccccc1)C(C)C)C(=O)CF [zVAD.fmk] (Cbz-Val-Ala-Asp(OMe)-CH2F)
- inhibition of paraptosis induction by caspase-7 and caspase-8 [1]: subject to inhibition
- effect on SP-induced cell death in neurons [2]: not inhibited
- effect on NK1R-mediated cell death in 293T cells [3]: lack of effect
- effect on apoptosis induced by over-expression of caspase-8 [4]: completely abolished
- effect of caspase inhibitors on paraptosis (paraptosis): lack of effect

B1: p35: caspase inhibitor (protein, UniProt P08160 1-299, looked up)
Early 35 kDa protein: MCVIFPVEIDVSQTIIRDCQVDKQTRELVYINKIMNTQLTKPVLMMFNISGPIRSVTRKNNNLRDRIKSKVDEQFDQLERDYSDQMDGFHDSIKYFKDEHYSVSCQNGSVLKSKFAKILKSHDYTDKKSIEAYEKYCLPKLVDERNDYYVAVCVLKPGFENGSNQVLSFEYNPIGNKVIVPFAHEINDTGLYEYDVVAYVDSVQFDGEQFEEFVQSLILPSSFKNSEKVLYYNEASKNKSMIYKALEFTTESSWGKSEKYNWKIFCNGFIYDKKSKVLYVKLHNVTSALNKNVILNTIK
- inhibition of paraptosis induction by caspase-7 and caspase-8 [1]: subject to inhibition
- effect of caspase inhibitors on paraptosis (paraptosis): lack of effect

B2: AIP-1: Alg-2 interacting protein 1, co-transfected with the IGFIR-IC construct (protein, UniProt Q8WUM4 2-868, looked up)
Programmed cell death …: ATFISVQLKKTSEVDLAKPLVKFIQQTYPSGGEEQAQYCRAAEELSKLRRAAVGRPLDKHEGALETLLRYYDQICSIEPKFPFSENQICLTFTWKDAFDKGSLFGGSVKLALASLGYEKSCVLFNCAALASQIAAEQNLDNDEGLKIAAKHYQFASGAFLHIKETVLSALSREPTVDISPDTVGTLSLIMLAQAQEVFFLKATRDKMKDAIIAKLANQAADYFGDAFKQCQYKDTLPKEVFPVLAAKHCIMQANAEYHQSILAKQQKKFGEEIARLQHAAELIKTVASRYDEYVNVKDFSDKINRALAAAKKDNDFIYHDRVPDLKDLDPIGKATLVKSTPVNVPISQKFTDLFEKMVPVSVQQSLAAYNQRKADLVNRSIAQMREATTLANGVLASLNLPAAIEDVSGDTVPQSILTKSRSVIEQGGIQTVDQLIKELPELLQRNREILDESLRLLDEEEATDNDLRAKFKERWQRTPSNELYKPLRAEGTNFRTVLDKAVQADGQVKECYQSHRDTIVLLCKPEPELNAAIPSANPAKTMQGSEVVNVLKSLLSNLDEVKKEREGLENDLKSVNFDMTSKFLTALAQDGVINEEALSVTELDRVYGGLTTKVQESLKKQEGLLKNIQVSHQEFSKMKQSNNEANLREEVLKNLATAYDNFVELVANLKEGTKFYNELTEILVRFQNKCSDIVFARKTERDELLKDLQQSIAREPSAPSIPTPAYQSSPAGGHAPTPPTPAPRTMPPTKPQPPARPPPPVLPANRAPSATAPSPVGAGTAAPAPSQTPGSAPPPQAQGPPYPTYPGYPGYCQMPMPMGYNPYAYGQYNMPYPPVYHQSPGQAPYPGPQQPSYPFPQPPQQSYYPQQ
- inhibition of IGFIR-IC induced paraptosis ([6]; co-transfected with the IGFIR-IC construct, ratio 1:3): able to inhibit IGFIR-IC induced paraptosis
- effect on SP-induced paraptosis (SP-induced paraptosis): can be inhibited
